Tests used:
[1] = Example 2 urinary pharmacokinetics, normal renal function vs severe renal impairment; conditions: single intranasal 160 mg cocaine HCl; for 0 to 32 hour urinary recovery (geometric mean) / 0 to 32 hour urinary recovery (mean) / 0 to 32 hour urinary recovery (median): metabolites as cocaine equivalents
Protocol: For the urine analysis of cocaine, BE, and EME, individual urinary recoveries for each analyte were determined over each collection interval as the product of the urine concentration times the urine volume. The total recoveries were determined as the sum of the recoveries over all the intervals. Total urinary recoveries were also expressed as the percentage of the administered dose, after correction for the molecular weight of each analyte. The renal clearances of cocaine, BE, and EME were determined as the urinary recovery (in μg) divided by the plasma AUC over the same time interval (the longest period for which both plasma and urine measurements were available).
Urine was collected prior to dosing and from 0-2, 2-4, 4-8, 8-12, 12-24, and 24-32 hours after the beginning of dose application. […] Testing methods used were consistent with those used by inVentiv Health Clinical Lab, Inc., Miami, Fla., U.S.A. Urinary pharmacokinetic parameters included total urinary recovery (μg), urinary recovery as a percentage of dose, and CLr.

[2] = Example 1 single-dose plasma pharmacokinetics after intranasal administration; format: in vivo, human; conditions: healthy subjects; single intranasal 160 mg cocaine HCl; plasma, >12 h after dosing
Protocol: Single-dose plasma and urinary pharmacokinetics of the pharmaceutical composition following intranasal administration was characterized in this study. This was a single-dose study in 30 healthy volunteers. The objective of the study was to examine the systemic pharmacokinetics of the pharmaceutical composition following acute, topical intranasal administration.
(§1) A single dose of a pharmaceutical composition was administered to both nostrils using cottonoid pledgets. […] Each pledget absorbed approximately 1 mL of pharmaceutical composition (i.e., 40 mg cocaine hydrochloride). Two soaked pledgets were placed into each nasal cavity of the subject and against the anterior septum for 20 minutes; thus, a total dose of 160 mg of cocaine hydrochloride was administered.
Blood samples were collected pre-dose (30 minutes before pledget insertion), and 7.5, 15, 20, 30, 45, 60, 75, 90, and 105 minutes and 2, 3, 4, 6, 8, 10, and 12 hours from the start of application of the pharmaceutical composition.
The effect of gender on Cmax, Tmax, AUClast, AUCinf, and t1/2 was determined. The effects of age, body weight, and BMI on AUClast were determined.

[3] = Example 1 urinary pharmacokinetics after intranasal administration; format: in vivo, human; conditions: healthy subjects; single intranasal 160 mg cocaine HCl; urine 0-12 h; metabolites as cocaine equivalents
Protocol: as §1
Urine samples were collected pre-dose and at the following intervals from the start of intranasal application of the pharmaceutical composition: 0-2 hours, 2-4 hours, 4-8 hours, and 8-12 hours. […] A 25-μL aliquot of each urine sample was processed by liquid-liquid extraction.
Urinary pharmacokinetic parameters were analyzed using noncompartmental methods.

[4] = normal renal function, listed as Benzoylecgonine
[5] = severe renal impairment, listed as Benzoylecgonine

Compound: CN1[C@H]2CC[C@@H]1[C@@H](C(=O)O)[C@@H](OC(=O)c1ccccc1)C2 [BE, benzoylecgonine]
- 0-32 h Urinary Recovery (geometric mean) ([1]; normal renal function): 2106 µg
- 0-32 h Urinary Recovery (mean) ([1]; normal renal function): 2764 µg
- 0-32 h Urinary Recovery (median) ([1]; normal renal function): 1483 µg
- Renal Clearance, CLr (geometric mean) ([1]; normal renal function): 3.61 L/h
- Renal Clearance, CLr (mean) ([1]; normal renal function): 3.77 L/h
- Renal Clearance, CLr (median) ([1]; normal renal function): 4.01 L/h
- Renal Clearance, geometric mean ([1]; normal renal function): 60.14 mL/min
- Renal Clearance, mean ([1]; normal renal function): 62.78 mL/min
- Renal Clearance, median ([1]; normal renal function): 66.86 mL/min
- 0 to 32 hour urinary recovery (geometric mean) ([1]; normal renal function): 1.55 % of administered dose
- 0 to 32 hour urinary recovery (mean) ([1]; normal renal function): 2.03 % of administered dose
- 0 to 32 hour urinary recovery (median) ([1]; normal renal function): 1.089 % of administered dose
- 0 to 32 hour urinary recovery (geometric mean) [1, 4]: 1.546 % of administered dose
- 0 to 32 hour urinary recovery (mean) [1, 4]: 2.029 % of administered dose
- 0-32 h Urinary Recovery (geometric mean) ([1]; severe renal impairment): 3126 µg
- 0-32 h Urinary Recovery (mean) ([1]; severe renal impairment): 3738 µg
- 0-32 h Urinary Recovery (median) ([1]; severe renal impairment): 2709 µg
- Renal Clearance, CLr (geometric mean) ([1]; severe renal impairment): 0.854 L/h
- Renal Clearance, CLr (mean) ([1]; severe renal impairment): 0.919 L/h
- Renal Clearance, CLr (median) ([1]; severe renal impairment): 0.824 L/h
- Renal Clearance, geometric mean ([1]; severe renal impairment): 14.2 mL/min
- Renal Clearance, mean ([1]; severe renal impairment): 15.3 mL/min
- Renal Clearance, median ([1]; severe renal impairment): 13.7 mL/min
- 0 to 32 hour urinary recovery (geometric mean) ([1]; severe renal impairment): 2.29 % of administered dose
- 0 to 32 hour urinary recovery (mean) ([1]; severe renal impairment): 2.74 % of administered dose
- 0 to 32 hour urinary recovery (median) ([1]; severe renal impairment): 1.988 % of administered dose
- 0 to 32 hour urinary recovery (geometric mean) [1, 5]: 2.294 % of administered dose
- 0 to 32 hour urinary recovery (mean) [1, 5]: 2.744 % of administered dose
- plasma level not exceeded (metabolite not detectable in plasma) [2]: ≤ 100 ng/mL
- Total Urinary Recovery (Geometric mean) [3]: 713 µg
- Total Urinary Recovery (Mean) [3]: 816 µg
- Total Urinary Recovery (Median) [3]: 769 µg
- Urinary Recovery (Geometric mean) [3]: 0.467 % dose
- Urinary Recovery (Mean) [3]: 0.534 % dose
- Urinary Recovery (Median) [3]: 0.504 % dose

From US10413505B1, “Pharmaceutical compositions and methods of using the same” (priority 2017, dated 2019)
